Assay results: US10039741B2, “Use of delta tocopherol for the treatment of lysosomal storage disorders” (The United States of America, as represented by the …, priority 2010, dated 2018)
Entries after “also recorded” stand apart in the source; their conditions may differ.

Assays:
Format in all cases: cell-based, human
NPC1 = assay: Protein expression (Western blot); conditions: NPC fibroblasts
Method: Cell lysates were prepared as previously described (31) and proteins in lysates were quantified using Bicinchoninic Acid (BCA) Protein Assay Kit (Sigma-Aldrich). Samples were heated at 65C for 10 min before resolved by SDS-PAGE under reducing conditions. Proteins were transferred to PVDF membranes (Bio-Rad Laboratory) using either Criterion Blotter (Bio-Rad Laboratory) or iBlot dry blotting devices (Invitrogen). For NPC1 and HMG-CoA reductase detection, rabbit polyclonal antibodies against NPC1 (Abcam, cat #ab36983, 1:2000) or HMG-CoA reductase (Millipore, cat #07-457, 1:1000) were used, respectively. A peroxidase-conjugated donkey anti-rabbit IgG (Santa Cruz) was used as secondary antibody at a 1:500 dilution.

neuron-like NPCD cells = assay: Filipin staining co-stained with neuronal beta III tubulin; conditions: neuron-like cells differentiated from NPCD patient MSC
Method: The adipose mesenchymal stem cells (HMSC.AD-100, HMSC-NPC22 and HMSC-NPC23) were isolated from two NPC patients as well as one heath individual and provided by Celleng-tech (Coralville, Iowa). These cells were maintained in MSC expansion media (Celleng-tech, cat# HMSC.E.Media-450) supplemented with 10% FBS 100 unit/ml penicillin and 100 μg/ml streptomycin at 5% CO2, 37° C. For neural differentiation, cells were initially plated at 30% confluency (˜2500 cells/cm^2) using MSC expansion media. After 24 hours, MSC expansion media were withdrew. Cells were washed twice with Dulbecco's phosphate Buffer saline (Invitrogen) and incubated with neural differentiation media (Celleng-tech, cat# NEU.D.Media-450) supplemented with 10% FBS, 100 unit/ml penicillin and 100 μg/ml streptomycin at 5% CO2, 37° C. for additional 3 days.
MSC cells were seeded on coverslips on day 0 in MSC expansion medium. On day 1, cells were washed twice with warm PBS buffer and then incubated with MSC neuronal differentiation medium. On day 4, media were replaced with fresh neuronal differentiation medium. On day 6, cells were fixed with 3.2% paraformaldehyde in HBSS for 15 min. Immunocytochemistry for neuronal beta III tubulin and unesterified cholesterol (filipin staining) was performed as described. The coverslips were examined y a XXX microscope. […]

NPC fibroblasts = assay: Microarray gene expression; set-up: HMGCR expression, Toco treat NPC / SC4MOL expression, Toco treat NPC / DHCR7 expression, Toco treat NPC / MMP3 expression, Toco treat NPC: unit not given here; conditions: 40 μM delta-tocopherol 5 days vs DMSO-treated
Method: Five NPC fibroblast cell lines as well as five normal fibroblast cell lines were treated with 40 μM delta-tocopherol for 5 days with a medium change and sully of fresh compound on 3rd day. The total RNAs was prepared as the standard method described previously ( ). The microarray gene expression experiment was carried out in a core microarray facility at NHGRI with a set of AAAAA chips (Affymetrix). Partek Genomics Software Suite (Copyright, Partek Inc.) was used to perform analysis of microarray data. Affymetrix cell files were loaded into the software using the RMA algorithm, which involved background correction, quantile normalization, log-2 transformation, and median polish summarization. PCA and hierarchical clustering identified one sample as an outlier. This sample (sample number 12) was not considered for further analysis. ANOVA was performed to identify the differentially expressed genes for three comparisons: 1) NPC_DMSO vs WT_DMSO 2) NPC tocopherol-treated vs NPC_DMSO-treated and 3) WT_tocopherol-treated vs WT_DMSO-treated.

[1] = tested on: Tay-Sachs disease fibroblasts; assay: Lysotracker staining assay
NPCD fibroblasts [2] = assay: Lysotracker staining assay (lysosome size)
Method: Lysotracker is fluorescent dye that stains acidic compartments in live cells and is well-retained after aldehyde fixation. We have optimized a lysotracker staining assay to visualize the enlarged lysosome size in the NPC skin fibroblasts by applying appropriate concentration of lysotracker dye in comparison with these normal fibroblast cells. Cells were seeded at 8000 cells/well in 100 μl medium in a black/clear bottom, tissue culture treated plate and cultured overnight or in a dedicated time. The cells were live-stained with 100 u/well 50 nM Lysotracker Red-99 dye (Invitrogen) dissolved medium at 37° C. for 1 hr followed by two-times plate wash with PBS buffer using the plate-inverted centrifugation method. The plate was then added with 100 μl/well 3.2% formaldehyde and 1 μg/ml Hoechst 33342 (Invitrogen) in PBS and incubated at room temperature for 30 minutes. After three times of plate wash with PBS buffer, samples were stored at 4° C. until imaging. Samples were photographed using an IN Cell Analyzer 1000 (GE Healthcare) with a 20× objective equipped with CCD camera. DAPI filter and TRITC filter were used to visualize Hoechst and Lysotracker red, respectively. The images were processed by Adobe Photoshop.

NPCD fibroblasts [3] = assay: Filipin cholesterol staining assay; conditions: NPCD patient cells
Method: Filipin dye staining was used to determine the level of free cholesterol accumulation in cells (27, 28). Cells were seeded at 1000 cells/well in 100 μl medium in the black/clear bottom, tissue culture treated 96-well plates (Greiner Bio-One, Monroe, N.C.) for culture overnight or in a designated time. The cells were washed twice with the HBBS buffer and fixed with 100 μl/well 3.2% formaldehyde at room temperature for 30 minutes. After three times of plate wash with PBS buffer, cells were stained with 50 μg/ml filipin, which was freshly-dissolved in DMSO at 10 mg/ml and then diluted in PBS buffer. Samples were then washed twice with PBS buffer and stored in 4° C. On the day of imaging, cells were stained with 2 μM of CellMask Red (Invitrogen, H32711) in PBS at room temperature for 1 h. Samples were viewed and photographed using a Nikon Eclipse Ti microscope with a 20× objective equipped with CCD camera. DAPI filter and TRITC filter were used to visualize filipin and CellMask Red, respectively. The images were processed by Adobe Photoshop.

SMILES: Cc1cc(O)cc2c1O[C@](C)(CCC[C@H](C)CCC[C@H](C)CCCC(C)C)CC2 [δ-tocopherol]
- expression of NPC-1 protein (NPC1): not changed
- expression of NPC-1 protein (NPC1; listed as Delta-tocopherol): did not change
- cholesterol accumulation (neuron-like NPCD cells): significant reduction
- ABCA1 expression, Toco treat NPC (NPC fibroblasts): significantly reduced; also recorded: decreased expression
- ACACA expression, Toco treat NPC (NPC fibroblasts): −1.5
- DHCR7 expression, Toco treat NPC (NPC fibroblasts): −1.7
- FADS2 expression, Toco treat NPC (NPC fibroblasts): −2.5
- FRRS1 expression, Toco treat NPC (NPC fibroblasts): 1.1
- HMGCR expression, Toco treat NPC (NPC fibroblasts): decreased
- HMGCS1 expression, Toco treat NPC (NPC fibroblasts): −1.9
- INSIG1 expression, Toco treat NPC (NPC fibroblasts): −1.8
- LDLR expression, Toco treat NPC (NPC fibroblasts): significantly reduced; also recorded: decreased expression
- MMP1 expression, Toco treat NPC (NPC fibroblasts): 2.7
- MMP3 expression, Toco treat NPC (NPC fibroblasts): 1.7
- NOX4 expression, Toco treat NPC (NPC fibroblasts): −1.1
- SC4MOL expression, Toco treat NPC (NPC fibroblasts): −1.4
- SCD expression, Toco treat NPC (NPC fibroblasts): decreased
- SREBF1 expression, Toco treat NPC (NPC fibroblasts): −1.4
- SREBF2 expression, Toco treat NPC (NPC fibroblasts): −1.6
- ABCA1 expression, Toco treat NPC (NPC fibroblasts; listed as tocopherol): −2.0
- HMGCR expression, Toco treat NPC (NPC fibroblasts; listed as tocopherol): −1.7
- LDLR expression, Toco treat NPC (NPC fibroblasts; listed as tocopherol): −2.0
- SCD expression, Toco treat NPC (NPC fibroblasts; listed as tocopherol): −3.9
- size of enlarged lysosomes [1]: significantly reduced
- effect on lysosome size decrease (NPCD fibroblasts [2]; 9 additional fibroblast primary cells from different NPCD patients): confirmed
- enlarged lysosome size (NPCD fibroblasts [2]; NPCD fibroblasts): decreased and shrunken to the size similar to the wild type cells
- free cholesterol accumulation (filipin staining) (NPCD fibroblasts [3]): significantly reduced
